Test results: patent US20040141995A1, “MHC class I-restricted and MHC class II-restricted EBNA1 peptides” (priority 2002, published 2004)
Like-named read-outs stand apart in the source and are kept apart here.

How the values were obtained:
Assay type in all cases: cell-based, human
[1] = system: 1359mel-specific CD8+ T cell recognition of 1359mel cells
Procedure: (§1) Target cells were incubated with various protease inhibitors for 2 h, washed and co-cultured with CD8^+ T cells overnight for IFN-γ release assays. Solvents used to solubilize inhibitors were also used as controls. […] Target cells were treated with different concentrations of protease inhibitors. After washes, the treated cells were co-cultured with M3-W1-B9 CD8^+ T cells overnight for IFN-γ release assays.
To test whether TPCK or AEBSF affected T cell recognition of other antigens, 1359mel were treated with the same concentrations of TPCK or AEBSF as described in FIG. 14A. […] AEBSF is an irreversible, specific inhibitor of serine proteases, while TPCK is an irreversible inhibitor of chymotrypsin and many other serine and cysteine proteases.

[2] = system: M3-W1-B9 CD8+ T cell recognition of HEK293/B8/EBNA1-GFP, LCL111 and 1359mel/EBNA1-GFP target cells; assay: Effect of inhibitors on M3W1-B9 CD8+ T cell recognition of EBNA1-expressing target cells (IFN-γ release); conditions: for dose dependence of inhibition of M3-W1-B9 CD8+ T cell recognition of HEK293/B8/EBNA1-GFP target cells: different concentrations of protease inhibitors (FIG. 14C); for effect on M3W1-B9 CD8+ T cell recognition of HEK293 transfected with HLA-B8 plus EBNA1-GFP: target cells treated with inhibitor, co-cultured with T cells overnight, IFN-γ release
Procedure: (§2) HEK 293 cells co-transfected with EBNA1-GFP were treated with various concentrations of ZAL inhibitor for 10 h. After washing, cells were incubated with T cells overnight for IFN-γ release assays. Various dilutions of DMSO were used as controls. T cell activity in the absence of inhibitor was used as 100% activity.
(§3) HLA-B8 expressing HEK293/EBNA1-GFP target cells were treated with an emetine inhibitor at three concentrations for 1h. After three washings, cells were co-cultured with M3-W1-B9 CD8^+ T cells overnight for IFN-γ release assays. […] HLA-B8 positive 1359 cells with the EBNA1-P518-526 peptide after the treatment of 1359mel cells were pulsed with 3 different concentration of emetine. FIG. 13B illustrates the determination of the sensitivity of recognition of TRP2-specific CD8 T cells to the treatment with emetine. 1363mel cells were treated with 3 different concentrations of emetine. After 3 washes, the cells were co-cultured with TRP2-specific CD8 ^+ T cells. The treated cells pulsed with a TRP2 peptide were used to examine the effect of emetine on recognition of MHC class I/TRP2 complexes on the cell surface; and
as §1
Target cells were incubated in the absence or presence of various concentrations of inhibitors for different period of time, depending on the type of inhibitors used. The cells were then washed and counted and co-cultured with T cells overnight for IFN-γ release assays. The solvents used to dissolve the inhibitors, such as DMSO, methanol and ethanol were also used as controls.
(§4) HEK293 cells were transfected with EBNA1-GFP and HLA-B8 cDNAs, and then treated them with different concentrations of ZAL and lactacystin, specific inhibitors of proteasomes. […] To exclude the potential nonspecific effect of ZAL on T cell recognition, the effects of ZAL inhibitor were tested on melanoma-reactive TIL102-CD4^+ T cells, which recognize a MHC class II-restricted epitope on the cell surface of 102mel tumor cells, and of P3-B7 CD4^+ T cells, which recognize HLA-DP3 expressing HEK293 cells transfected with Ii-EBNA1 as target cells. […] The effects of lactacystin, another specific proteasome inhibitor, were also tested on T cell recognition.
HLA-B8 expressing HEK293/EBNA1-GFP cells were treated with different concentrations of irreversible (emetine) and reversible (puromycin and cycloheximide) protein synthesis inhibitors for 1 h. After washing to remove inhibitors, the treated cells were co-cultured with antigen-specific CD8^+ T cells. […] Since blocking protein synthesis should rapidly decrease the peptide supply required for the export of MHC class I molecules from the ER to the cell surface as well as synthesis of MHC class I molecules, the treatment of cells with emetine would decrease the overall antigen presentation by MHC class I molecules.

[3] = system: TRP2-specific CD8+ T cell recognition of 1363mel cells; assay: Effect of emetine on recognition of 1363mel cells by TRP2-specific CD8+ T cells
Procedure: as §3
HLA-B8 positive 1359mel cells were pulsed with the EBNA1-P518-526 peptide after the cells were treated with different concentrations of emetine and washed. […] 1363mel cells (TRP2^+ and HLA-A2^+) were treated with different concentrations of emetine, and then tested for their ability to stimulate TRP2-specific CD8^+ T cells. […] However, there was only 30% inhibition of T cell recognition at 1 μM emetine treatment compared with over 90% inhibition of EBNA1-specific CD8^+ T cells at the same concentration of emetine (FIG. 13A). […] On the other hand, the processing and presentation of the TRP2 and CD4^+ T cell EBNA1 epitopes are less dependent on the production of short-lived DRiPs.

[4] = system: P3-B7 CD4+ T cell recognition of HEK293/DP3/Ii-EBNA1 target cells; assay: Effect of inhibitors on P3-B7 CD4+ T cell recognition of EBNA1 target cells; conditions: Homo sapiens, CD4+ T cell; 1 μM emetine; read-out: inhibition of EBNA1-specific P3-B7 CD4+ T cell recognition
Procedure: as §2, §4
HLA-B8 positive 1359mel cells were pulsed with the EBNA1-P518-526 peptide after the cells were treated with different concentrations of emetine and washed. […] 1363mel cells (TRP2^+ and HLA-A2^+) were treated with different concentrations of emetine, and then tested for their ability to stimulate TRP2-specific CD8^+ T cells. […]

| SMILES | inhibition of recognition of 1359mel cells by 1359mel-specific CD8+ T cells ([1]; same inhibitor concentrations as FIG. 14A) | dose dependence of inhibition of M3-W1-B9 CD8+ T cell recognition of HEK293/B8/EBNA1-GFP target cells [2] | effect on M3W1-B9 CD8+ T cell recognition of HEK293 transfected with HLA-B8 plus EBNA1-GFP ([2]; washed) | inhibition of recognition of 1359mel cells by 1359mel-specific CD8+ T cells [1] | effect on T cell recognition of TRP2 peptide-pulsed target cells after inhibitor treatment [3] | inhibition at 1 µM ([3]; Homo sapiens, T-cell, 1 μM emetine, read-out: inhibition of recognition of 1363mel target cells by TRP2-specific CD8+ T cells) [%] | concentration dependence of inhibition of recognition of 1363mel target cells by TRP2-specific CD8+ T cells ([3]; different concentrations of emetine) | inhibition of M3W1-B9 CD8+ T cell recognition of HLA-B8 expressing HEK293/EBNA1-GFP target cells ([2]; 5 μM inhibitor for 1 h) | inhibition at 1 µM ([2]; Homo sapiens, T-cell, 1 h, 1 μM inhibitor for 1 h, read-out: inhibition of M3W1-B9 CD8+ T cell recognition of HLA-B8 expressing HEK293/EBNA1-GFP target cells) [%] | effect on T cell recognition of 1359mel cells pulsed with EBNA1-P518-526 peptide after inhibitor treatment ([2]; different concentrations of emetine, washed, then peptide-pulsed) | inhibition at 1 µM [4] [%] |
| --- | --- | --- | --- | --- | --- | --- | --- | --- | --- | --- | --- |
| NCCc1ccc(S(=O)(=O)F)cc1 [AEBSF] | No inhibition | in a dose-dependent manner | significantly blocked |  |  |  |  |  |  |  |  |
| Cc1ccc(S(=O)(=O)N[C@@H](Cc2ccccc2)C(=O)CCl)cc1 [TPCK] |  | in a dose-dependent manner | significantly blocked | No inhibition |  |  |  |  |  |  |  |
| CC[C@H]1CN2CCc3cc(OC)c(OC)cc3[C@@H]2C[C@@H]1C[C@H]1NCCc2cc(OC)c(OC)cc21 [emetine] |  |  |  |  | slightly inhibited | 30 | increased with the increasing concentrations | completely inhibited | 94 | slightly inhibited | 20 |
